Data reported in patent publication US20250313546A1, “NUCLEIC ACID BINDERS” (UNIVERSITY OF STRATHCLYDE, priority 2022, published 2025).
Values after ≈ are worked out from the molar mass of the structure shown.

Tests used:
[1] = tested on: Rhizopus arrhizus (NEQAS12.35321); settings: read-out: MIC99 Rhizopus arrhizus
Method: (§2) The Minimum Inhibitory Concentration (MIC, at 99% inhibition) of the compounds was determined using the broth microdilution method as recommended by EUCAST (EUCAST Definitive Document E.DEF 9.3.2, Method for the determination of broth dilution minimum inhibitory concentrations of antifungal agents for conidia forming moulds and EUCAST Definitive Document E.DEF 7.3.2 Method for the determination of broth dilution minimum inhibitory concentrations of antifungal agents for yeasts).

[2] = tested on: Human rhinovirus (HRV-14); assay: Viral ToxGlo assay, Hela Ohio cells; format: cell-based; settings: M-HeLa, 72 h
Influenza (H1N1) = assay: Accelerated Viral Neuraminidase Inhibition Assay (AVINA), A549 cells; format: cell-based; settings: Influenza A virus, 72 h
T. equiperdum = assay: Resazurin-based (Alamar blue) drug sensitivity assay; settings: Trypanosoma equiperdum, read-out: IC50 T. equiperdum
Method: (§3) A detailed description of the procedure for evaluating activity against trypanosomes, using an Alamar Blue (resazurin) assay, is described below.
(§4) The bloodstream form (BSF) T. b. brucei s427 (see De Koning, H. P. et al., Mol. Biochem. Parasitol. 2000, 106, 181-185), T. evansi AntTat 3/3 (see Dean, S. et al., Proc. Natl. Acad. Sci. USA, 2013, 110, 14741-14746), and T. equiperdum (see Stewart, M. L. et al., Eukaryot. Cell, 2010, 9, 336-343) were cultured in HMI-9 medium (Life Technologies, Paisley, United Kingdom) supplemented with 10% heat inactivated Foetal Bovine Serum (FBS (PAA Laboratories Linz, Austria)), 14 μL/L β-mercaptoethanol (BDH, Dorset, UK), and 3.0 g/L NaHCO3 (Sigma-Aldrich) and adjusted to pH 7.4. These cell lines were maintained at 37° C. in a humidified, 5% CO2 environment.
(§5) A resazurin-based (Alamar blue) drug sensitivity assay was used to assess and compare the activity of standard trypanocides in the different cell lines investigated (see Gould, M. K. et al., Anal. Biochem., 2008, 382, 87-93). Briefly, 23 doubling dilutions of the test compound of the invention, starting at 100 μM, and a compound-free control were prepared in 100 μL medium in a 96-well white plate (Greiner Bio-one, Frickenhausen, Germany). The cells were adjusted to 2×10^4 cells/mL for T. b. brucei and T. equiperdum; 4×10^4 cells/mL for T. evansi; and 5×10^5 cells/mL for T. congolense in the appropriate medium. 100 μL of the adjusted cells was then added to the wells containing drug dilutions and incubated for 48 h under respective culture condition. Thereafter, 20 μL of 125 mg/mL resazurin sodium dye was added, and the plate was incubated for a further 24 h.

[3] = tested on: PolyAU double stranded RNA; assay: Fluorescence intercalator displacement (FID) assay, SYBR-safe probe; settings: 20 μM compound, 30° C., lower % = stronger binding
Procedure, shortened: (§1)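 Compound at 20 μM mixed with 3.76 ng/mL polyAU dsRNA or salmon genomic dsDNA and 12500-fold diluted SybrSafe in 1 mM phosphate buffer pH 7.4, then heated to 30 °C and fluorescence read. Reduction is expressed as normalised %, with nucleic acid plus probe as maximum and probe alone as minimum.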

[4] = tested on: Genomic double stranded DNA (salmon); assay: as above; settings: 20 μM compound, 30° C., lower % = stronger binding
Procedure, shortened: as §1

C. neoformans (F10025) = settings: Cryptococcus neoformans, read-out: MIC99 C. neoformans
[5] = tested on: Candida glabrata (ACPF3309); settings: for MIC99: Nakaseomyces glabratus, read-out: MIC99 Candida glabrata
[6] = tested on: A. fumigatus A1160 (MFIG001); settings: Aspergillus fumigatus, read-out: MIC99 A. fumigatus A1160
Method: as §2

[7] = tested on: Escherichia coli (ATCC 25922); assay: Antibacterial MIC, broth microdilution (CLSI); format: cell-based; settings: Escherichia coli, ATCC25922; read-out: MIC80 E. coli
T. evansi AntTat 3/3 = assay: Resazurin-based (Alamar blue) drug sensitivity assay; settings: read-out: IC50 T. evansi
Method: as §3, §4, §5

[8] = tested on: Staphylococcus aureus (ATCC 43300); assay: Antibacterial MIC, broth microdilution (CLSI); format: cell-based; settings: for S. aureus Selectivity Indices, Group: Alkyl Amidines and NH Pyrroles; for MIC80: Staphylococcus aureus, ATCC43300, read-out: MIC80 S. aureus
Candida auris (H.17.157) = settings: for MIC99: Candidozyma auris, read-out: MIC99 Candida auris
Method: as §2

[9] = tested on: Enterococcus faecalis (ATCC 51299); assay: Antibacterial MIC, broth microdilution (CLSI); format: cell-based; settings: for MIC80: Enterococcus faecalis, ATCC51299, read-out: MIC80 E. faecalis; for E. faecalis Selectivity Indices, Group: Alkyl Amidines and NH Pyrroles
[10] = tested on: SARS-CoV-2 (hCoV-19/Australia/VIC01/2020); assay: SARS-CoV-2 microplaque inhibition assay in Vero-E6 cells; format: cell-based; settings: for IC50: Severe acute respiratory syndrome coronavirus 2, Vero C1008, plaque inhibition, Vero-E6 cells, read-out: IC50 SARS-CoV-2
[11] = tested on: human respiratory syncytial virus (RSV A2); assay: Viral ToxGlo assay, Hep-2 cells; format: cell-based; settings: 72 h
T. vaginalis = assay: Trichomonas resorufin assay; format: cell-based; settings: for IC50: Trichomonas vaginalis, read-out: IC50 T. vaginalis
[12] = SI, IC50 (μM)/MIC99 (μg/mL), HEK293 cytotoxicity, Alkyl Amidines and NH Pyrroles
[13] = SI, IC50 (μM)/MIC80 (μM), HEK293 cytotoxicity
[14] = SI, IC50 (μM)/IC50 (μM), HEK293 cytotoxicity, Alkyl Amidines and NH Pyrroles
[15] = SI, IC50 (μM)/IC50 (μM), HEK293 cytotoxicity, numeric value
[16] = SI, IC50 (μM)/MIC80 (μM), HEK293 cytotoxicity, numeric value

Row | SMILES | inhibition at 20 µM [2] [%] | inhibition at 20 µM (Influenza (H1N1)) [%] | % Normalised Fluorescence with polyAU RNA [3] [%] | % Normalised Fluorescence with gDNA [4] [%] | MIC99 (C. neoformans (F10025)) [µg/mL] | MIC99 [5] [µg/mL] | MIC99 [6] [µg/mL] | MIC80 [7] [µM] | S. aureus Selectivity Indices, Group [8, 13] | MIC80 [8] [µM] | MIC80 [9] [µM] | E. faecalis Selectivity Indices, Group [9, 13] | inhibition at 20 µM [11] [%] | IC50 (T. vaginalis) [µM] | also measured
1 | CN(C)c1ccc(/C=C/c2ccc(C(=O)Nc3c[nH]c(C(=O)Nc4c[nH]c(C(=O)NCCC(=N)N)c4)c3)cn2)cc1 [IIIa9, (E)-N-(5-((5-((3-amino-3-iminopropyl)carbamoyl)-1H-pyrrol-3-yl)carbamoyl)-1H-pyrrol-3-yl)-6-(4-(dimethylamino)styryl)nicotinamide] | 25 to 50 | 10 to 25 | 24 | 16 | < 5 | < 5 | 5 to 25 (≈ 9.03 to 45.2 µM) | 25 to 100 (≈ 13.8 to 55.4 µg/mL) | C (Group C: 5 < SI <= 10) | 5 to 25 (≈ 2.77 to 13.8 µg/mL) | 5 to 25 (≈ 2.77 to 13.8 µg/mL) | C (Group C: 5 < SI <= 10) |  |  | MIC99 [1]: 5 to 25 µg/mL (≈ 9.03 to 45.2 µM); IC50 (T. equiperdum): > 1 µM; C. glabrata Selectivity Indices, Group [5, 12]: C (Group C 20 < SI <= 50); IC50 (T. evansi AntTat 3/3): 0.1 to 1 µM; MIC99 (Candida auris (H.17.157)): 5 to 25 µg/mL (≈ 9.03 to 45.2 µM); C. auris Selectivity Indices, Group (Candida auris (H.17.157); [12]): D (Group D SI > 3); C. auris Selectivity Index (SI) (Candida auris (H.17.157); SI, IC50 (μM)/MIC99 (μg/mL), HEK293 cytotoxicity, numeric value): 6; SARS-CoV-2 Selectivity Indices, Group [10, 14]: D (Group D: SI > 25); SARS-CoV-2 Selectivity Index (SI) [10, 15]: 33; IC50 [10]: < 2 µM
2 | CN(C)c1ccc(/C=C/c2ccc(C(=O)Nc3c[nH]c(C(=O)Nc4c[nH]c(C(=O)NCCN5CCOCC5)c4)c3)cn2)cc1 [IIIb7, (E)-6-(4-(dimethylamino)styryl)-N-(5-((5-((2-morpholinoethyl)carbamoyl)-1H-pyrrol-3-yl)carbamoyl)-1H-pyrrol-3-yl)nicotinamide] | 10 to 25 |  | 44 | 63 |  |  |  | > 100 | B (Group B: 3 < SI <= 5) | 5 to 25 (≈ 2.98 to 14.9 µg/mL) | > 100 |  |  |  | 
3 | COCCOCCOCCNC(=O)c1cc(NC(=O)c2cc(NC(=O)c3ccc(/C=C/c4cnc5ccccc5c4)cc3)cn2C)cn1C [IVa8, (E)-N-(2-(2-(2-methoxyethoxy)ethoxy)ethyl)-1-methyl-4-(1-methyl-4-(4-(2-(quinolin-3-yl)vinyl)benzamido)-1H-pyrrole-2-carboxamido)-1H-pyrrole-2-carboxamide] | 25 to 50 | 10 to 25 | 94 | 70 |  |  |  | > 100 |  | 5 to 25 (≈ 3.32 to 16.6 µg/mL) | 5 to 25 (≈ 3.32 to 16.6 µg/mL) |  | 10 to 25 | 5 to 50 | T. vaginalis Selectivity Indices, Group (T. vaginalis; SI, IC50 (μM)/IC50 (μM), HEK293 cytotoxicity, Amides): B (Group B: 0.25 < SI <= 0.5)
4 | CC/N=C(\N)CCNC(=O)c1cc(NC(=O)c2cc(NC(=O)c3ccc(/C=C/c4cnc5ccccc5c4)cc3)cn2C)cn1C [Ia14, N—((Z)-3-amino-3-(ethylimino)propyl)-1-methyl-4-(1-methyl-4-(4-((E)-2-(quinolin-3-yl)vinyl)benzamido)-1H-pyrrole-2-carboxamido)-1H-pyrrole-2-carboxamide] |  | < 10 | 6 | 2 | 5 to 25 (≈ 8.11 to 40.5 µM) | 5 to 25 (≈ 8.11 to 40.5 µM) | > 50 | > 100 | D (D: SI > 10) | < 5 | < 5 | D (D: SI > 10) | 10 to 25 | < 1 | MIC99 [1]: > 50 µg/mL; S. aureus Selectivity Index (SI) [8, 16]: 44; T. vaginalis Selectivity Indices, Group (T. vaginalis; [14]): D (Group D: SI > 32); T. vaginalis Selectivity Index (SI) (T. vaginalis; [15]): 35; MIC99 (Candida auris (H.17.157)): > 50 µg/mL; E. faecalis Selectivity Index (SI) [9, 16]: 11
5 | COc1ccc(/C=C/c2ccc(C(=O)Nc3cc(C(=O)Nc4cc(C(=O)NCCC(=N)NC(C)C)n(C)c4)n(C)c3)cn2)cc1 [Ia15, (E)-N-(5-((5-((3-imino-3-(isopropylamino)propyl)carbamoyl)-1-methyl-1H-pyrrol-3-yl)carbamoyl)-1-methyl-1H-pyrrol-3-yl)-6-(4-methoxystyryl)nicotinamide] |  |  | 64 | 16 | < 5 | 5 to 25 (≈ 8.19 to 40.9 µM) | 25 to 50 (≈ 40.9 to 81.9 µM) | 25 to 100 (≈ 15.3 to 61.1 µg/mL) | C (Group C: 5 < SI <= 10) | 5 to 25 (≈ 3.05 to 15.3 µg/mL) | 5 to 25 (≈ 3.05 to 15.3 µg/mL) |  | 10 to 25 | > 50 | IC50 (T. equiperdum): 0.1 to 1 µM; IC50 (T. evansi AntTat 3/3): 0.1 to 1 µM; IC50 [10]: 8 to 32 µM
6 | [H]/N=C(\CCNC(=O)c1cc(NC(=O)c2cc(NC(=O)c3ccc(C=Cc4ccc(C#N)cc4)cc3)cn2C)cn1C)NCC [Ia16, (E)-4-(4-(4-cyanostyryl)benzamido)-N-(5-((3-(ethylamino)-3-iminopropyl)carbamoyl)-1-methyl-1H-pyrrol-3-yl)-1-methyl-1H-pyrrole-2-carboxamide] |  | 25 to 50 | 27 | 31 | 5 to 25 (≈ 8.46 to 42.3 µM) | 25 to 50 (≈ 42.3 to 84.6 µM) | > 50 | > 100 |  | 25 to 100 (≈ 14.8 to 59.1 µg/mL) | 5 to 25 (≈ 2.95 to 14.8 µg/mL) | B (Group B: 3 < SI <= 5) | 25 to 50 | 5 to 50 | 
7 | [H]/N=C(\CCNC(=O)c1cc(NC(=O)c2cc(NC(=O)c3ccc(C=Cc4ccc(C#N)cc4)cc3)cn2C)cn1C)NC(C)C [Ia17, (E)-4-(4-(4-cyanostyryl)benzamido)-N-(5-((3-imino-3-(isopropylamino)propyl)carbamoyl)-1-methyl-1H-pyrrol-3-yl)-1-methyl-1H-pyrrole-2-carboxamide] |  | 10 to 25 | 28 | 13 | > 50 | 25 to 50 (≈ 41.3 to 82.7 µM) | > 50 | > 100 |  | 25 to 100 (≈ 15.1 to 60.5 µg/mL) | 25 to 100 (≈ 15.1 to 60.5 µg/mL) |  | 10 to 25 | 5 to 50 | 
